{"source": "ChEMBL document CHEMBL1153257", "about": "“Diphenylpyrazolidinone and benzodiazepine cholecystokinin antagonists: A case of convergent evolution in medicinal chemistry” (Bioorg Med Chem Lett, 1993)", "key": {"[1]": {"molecular_target": "T1, Cholecystokinin receptor type A (Rattus norvegicus, UniProt P30551)", "T1 sequence (P30551 whole entry)": "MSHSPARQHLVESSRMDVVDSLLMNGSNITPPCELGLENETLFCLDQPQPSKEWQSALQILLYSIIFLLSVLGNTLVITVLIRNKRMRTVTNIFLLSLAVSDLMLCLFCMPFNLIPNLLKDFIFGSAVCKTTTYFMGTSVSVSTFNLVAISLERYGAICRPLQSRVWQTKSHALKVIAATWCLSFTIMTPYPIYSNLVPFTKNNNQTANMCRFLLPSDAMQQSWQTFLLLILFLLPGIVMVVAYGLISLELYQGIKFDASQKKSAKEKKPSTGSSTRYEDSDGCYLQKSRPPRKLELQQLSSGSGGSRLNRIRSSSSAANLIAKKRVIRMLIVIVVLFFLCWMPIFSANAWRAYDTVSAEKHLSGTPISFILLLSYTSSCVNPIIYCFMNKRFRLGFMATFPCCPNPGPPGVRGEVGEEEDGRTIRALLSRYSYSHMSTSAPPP", "assay": "The compound was tested for its activity to inhibit the binding of [125I]CCK-8 to Cholecystokinin type A receptor in rat pancreas"}, "[2]": {"molecular_target": "T2, Gastrin/cholecystokinin type B receptor (Mus musculus, UniProt P56481)", "T2 sequence (P56481 whole entry)": "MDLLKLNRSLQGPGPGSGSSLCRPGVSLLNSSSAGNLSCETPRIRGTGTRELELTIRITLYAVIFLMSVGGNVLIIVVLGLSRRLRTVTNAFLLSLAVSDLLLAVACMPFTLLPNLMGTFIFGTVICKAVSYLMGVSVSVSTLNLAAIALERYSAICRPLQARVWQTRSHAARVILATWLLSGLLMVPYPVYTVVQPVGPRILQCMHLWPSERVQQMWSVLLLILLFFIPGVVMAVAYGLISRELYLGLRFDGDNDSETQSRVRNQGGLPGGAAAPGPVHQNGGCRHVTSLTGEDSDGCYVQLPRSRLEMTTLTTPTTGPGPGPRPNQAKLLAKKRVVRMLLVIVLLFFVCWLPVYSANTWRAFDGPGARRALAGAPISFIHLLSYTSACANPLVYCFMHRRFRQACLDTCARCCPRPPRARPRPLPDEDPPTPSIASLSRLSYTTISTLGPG", "assay": "The compound was tested for its activity to inhibit the binding of [125I]CCK-8 to Cholecystokinin type B receptor in mouse brain at a pH of 7.4", "format": "tissue-based"}, "[3]": {"molecular_target": "T1, Cholecystokinin receptor type A", "assay": "The compound was tested for its activity to inhibit the binding of [3H]-L-364,718 to Cholecystokinin type A receptor in rat pancreas"}, "[4]": {"molecular_target": "T2, Gastrin/cholecystokinin type B receptor", "assay": "The compound was tested for its activity to inhibit the binding of [125I]CCK-8 to Cholecystokinin type B receptor in mouse brain at a pH of 6.5", "format": "tissue-based"}}}
{"smiles": "CN1C(=O)[C@H](NC(=O)c2ccc(Cl)cc2)N=C(c2ccccc2)c2ccccc21", "values": [{"measurement": "IC50", "setting": "[1]", "result": 0.0029, "unit": "µM"}]}
{"smiles": "O=C1NN(C(=S)Nc2ccc(Cl)c(C(F)(F)F)c2)[C@H](c2ccccc2)[C@H]1c1ccccc1", "values": [{"measurement": "IC50", "setting": "[2]", "result": 1.9, "unit": "µM"}, {"measurement": "IC50", "setting": "[3]", "result": 0.017, "unit": "µM"}]}
{"smiles": "O=C1NN(C(=S)Nc2ccc(Cl)c(C(F)(F)F)c2)C(c2ccccc2)C1c1ccccc1", "note": "(centres undefined)", "values": [{"measurement": "IC50", "setting": "[2]", "result": 0.88, "unit": "µM"}, {"measurement": "IC50", "setting": "[3]", "result": 0.042, "unit": "µM"}]}
{"smiles": "CN1C(=O)[C@@H](NC(=O)c2ccc(Cl)cc2)N=C(c2ccccc2)c2ccccc21", "values": [{"measurement": "IC50", "setting": "[1]", "result": 0.00039, "unit": "µM"}]}
{"smiles": "O=C1NN(C(=S)Nc2ccc(Cl)c(C(F)(F)F)c2)[C@@H](c2ccccc2)[C@@H]1c1ccccc1", "values": [{"measurement": "IC50", "setting": "[2]", "result": 0.55, "unit": "µM"}, {"measurement": "IC50", "setting": "[3]", "result": 0.81, "unit": "µM"}]}
{"smiles": "O=C1NN(C(=O)Nc2ccc(Br)cc2)[C@H](c2ccccc2)[C@H]1c1ccccc1", "values": [{"measurement": "IC50", "setting": "[4]", "result": 0.37, "unit": "µM"}, {"measurement": "IC50", "setting": "[3]", "result": 6.4, "unit": "µM"}]}
{"smiles": "O=C1NN(C(=O)Nc2ccc(Br)cc2)[C@@H](c2ccccc2)[C@@H]1c1ccccc1", "values": [{"measurement": "IC50", "setting": "[4]", "result": 0.019, "unit": "µM"}, {"measurement": "IC50", "setting": "[3]", "result": 20.5, "unit": "µM"}]}
{"smiles": "O=C1NN(C(=O)Nc2ccc(Br)cc2)C(c2ccccc2)C1c1ccccc1", "note": "(centres undefined)", "values": [{"measurement": "IC50", "setting": "[4]", "result": 0.031, "unit": "µM"}, {"measurement": "IC50", "setting": "[3]", "result": 11.6, "unit": "µM"}]}
